{"source": "patent US20090143236A1", "about": "“Method of detecting cancer cell acquiring drug-resistance” (BML, INC., priority 2004, published 2009)", "tested_on": "SKOV3 cells and SKOV3/VP cells", "assay": "Caspase activity (colorimetric CaspACE assay) of ovarian cancer cells treated with VP-16", "assay_type": "cell-based, Human", "settings": "100 μg/ml VP-16, 24 hours; FIG. 4A", "method": "Caspase activity was measured using a calorimetric CaspACE assay system (Promega Co., Madison, Wis., U.S.A.) in accordance with the instructions included therewith. SKOV3 cells and SKOV3/VP cells were cultured for 24 hours in the presence of 100 μg/ml VP-16, or VP-16 and the caspase inhibitor Z-VAD-FMK, or in the presence of only a medium (control). The cells were dissolved in a lysis buffer, and the resultant was then subjected to centrifugation at 4° C. at 15,000×g for 20 minutes. The supernatant (containing 100 μg of protein) was incubated with a substrate (Ac-DEVD-pNA) used for the measurement of caspase activity at 37° C. for 4 hours. Thereafter, the absorbance at 405 nm was measured, so as to obtain the activity.\nThe influence of BCL2L2 gene expression on apoptosis induced by anticancer drugs was analyzed. Human ovarian cancer SKOV3 cells and etoposide-resistant ovarian cancer SKOV3/VP cells were cultured for 24 hours in the presence of 100 μg/ml VP-16, so as to measure apoptosis associated with activation of caspase-3. […] Thereafter, in order to analyze the role of the BCL2L2 gene, the cells were treated with the antisense oligonucleotide of BCL2L2, and the influence of VP-16 was analyzed under conditions wherein expression of the BCL2L2 gene was suppressed. […]", "data": [{"smiles": "COc1cc([C@@H]2c3cc4c(cc3[C@@H](O[C@@H]3O[C@@H]5CO[C@@H](C)O[C@H]5[C@H](O)[C@H]3O)[C@H]3COC(=O)[C@H]23)OCO4)cc(OC)c1O", "note": "[VP-16, etoposide]", "values": [{"measurement": "caspase activity in etoposide-resistant SKOV3/VP cells compared with parent line SKOV3", "result": "decreased to approximately one-half"}]}]}
